Literature values as cited in patent US20060257502A1, “A COMBINATION OF MITOCHONDRIAL NUTRIENTS FOR RELIEVING STRESS, PREVENTING AND IMPROVING STRESS-RELATED DISORDERS” (priority 2005, published 2006).

Test system: rats

## Oc1ccc(/C=C/c2cc(O)cc(O)c2)cc1 [Resveratrol, trans-3,5,4′-trihydroxystilbene]
  No observed adverse effect level: 300 mg per kilogram body weight per day
